Legend:
SCC4 = assay: Additional cell proliferation assay, SCC4; format: cell-based, human; conditions: SCC4, 24 hour treatment
Excerpt: (§1) Observed reductions in cell proliferation in these additional in vitro studies are as follows: SCC4, 40%; HSC3, 50%; SCC25, 80%; Cal27, 15%; MDA231, 56%; and LnCap, 37%.

HSC3 xenografts = assay: OSCC mouse xenograft model, HSC3; format: in vivo, athymic nude (nu/nu) mice; conditions: 40 μg CPZ intra-tumoral every other day
Excerpt: Animals. Six week-old female athymic nude (nu/nu) mice were purchased from HARLAN Laboratories (Indianapolis, Ind.) and used in a laminar air-flow cabinet under pathogen-free conditions. They were provided with a 12-h light/dark schedule at controlled temperature and humidity with food and water ad libitum. Mice were allowed to acclimate for at least one week prior to the start of the experiments. All procedures were approved by the UTHSCSA (University of Texas Health Science Center—San Antonio) Institutional Animal Care and Use Committee.
OSCC Mouse Xenograft Model. Mice were injected subcutaneously in the right flank with 2×10^6 HSC3, SCC4, or SCC25 cells in 0.1 ml of sterile phosphate buffered saline (each of these cell lines is published in scientific literature). Four weeks post-inoculation, tumors had grown to an average volume of 110 mm^3. Mice were then divided into two experimental groups of five animals each, which received the following treatments as intra-tumoral injections: group A, vehicle control (7% DMSO in sterile saline); group B, CPZ treatment (40 μg). The injections were repeated every other day and for a total of at least 14 days.
Treatments. […] Mice were monitored daily for tumor growth, cachexia, and weight loss. Tumor volumes and body weight were recorded every other day. Tumor volumes were calculated by the formula: (4π/3)×(w/2)2×(l/2), where w=width and l=length. […]

[1] = test system: OSCC cell lines (HSC3, SCC4, and SCC25); assay: Calcium imaging of OSCC cell lines; format: cell-based, human; conditions: capsazepine 30 μM (cytotoxic dose)
Description: FIGS. 1J-1 to 1J-2. FIGS. 1J-1(a) to (c): […] FIGS. 1J-2(a) to (c): […] Arrow indicates time point when treatment was added. […] This was due to the toxic effects of this high capsaicin concentration which permeablized the cell membrane allowing calcium to flow freely […] the cell. This was not reversed by capsazepine. […] These finding confirm that activation of TRPV1 is not the mechanism by which cell death is induced using capsazepine.

[2] = test system: OSCC cell lines (HSC3, SCC4, and SCC25); assay: Apoptosis studies, microscopic analysis of OSCC cells; format: cell-based, human; conditions: CPZ 30, 60 or 90 μM, 24 hrs
Description: FIGS. 1E-1, 1E-2, and 1E-3. […] In FIG. 1E-1, magnifications of (from left to right) vehicle control HSC3 cells (a) and HSC3 cells treated with 30 μM CPZ (b), 60 μM CP(c), or 90 μM CPZ(d). In FIG. 1E-2, magnifications of (from left to right) vehicle control SCC4 cells (a) and SCC4 cells treated with 30 μM CPZ (b), 60 μM CPZ (c), 90 μM CPZ (d), while, in FIG. 1E-3, magnifications of (from left to right) vehicle control SCC25 cells (a) and SCC25 cells treated with 30 μM CPZ (b), 60 μM CPZ (c), or 90 μM CPZ (d).
To determine if reduced cell viability was due to apoptosis, flow-sort analysis and microscopic analysis of cells in three OSCC cell lines (HSC3, SCC4, and SCC25) following treatment were performed. […] (Compare FIGS. 1E-1(b) to (d), FIGS. 1E-2(b)-(d), and FIGS. 1E-3(b) to (d) with FIG. 1E-1(a), FIG. 1E-2(a), and FIG. 1E-3(a), respectively.)

SCC25 = assay: Additional cell proliferation assay, SCC25; format: cell-based, human; conditions: SCC25, 24 hour treatment
Excerpt: as §1

[3] = test system: prostate cancer cell line LnCap; assay: Additional cell proliferation assay, LnCap; format: cell-based; conditions: 24 hour treatment
Excerpt: as §1

[4] = test system: CFA-induced mechanical hyperalgesia; conditions: guinea pigs; cited from earlier work
HSC3 cells = assay: Cell viability assay of HSC3 cells, dose response curve; format: cell-based; conditions: Homo sapiens, HSC-3, HSC3 cells, FIG. 1K
Excerpt: FIG. 1K. Cell viability assay of HSC3 cells treated with increasing concentrations of curcumin; […]

Cal27 = assay: Additional cell proliferation assay, Cal27; format: cell-based, human; conditions: Cal27, 24 hour treatment
Excerpt: as §1

[5] = test system: breast cancer cell line MDA231; assay: Additional cell proliferation assay, MDA231; format: cell-based, human; conditions: MDA231, 24 hour treatment
Excerpt: as §1

[6] = test system: MDA231 breast cancer cells; assay: Cell viability assay of MDA231 cells with and without NAC; format: cell-based, human; conditions: 24 h
[7] = test system: immortalized human bronchiolar epithelial cell line transformed with a TRPV1 insert; conditions: TRPV1-overexpressing cultured cells; cited from earlier work
OSCC xenografts = assay: TUNEL staining of OSCC xenografts; format: in vivo, mice; conditions: CPZ treated xenografts, p<0.001
Description: FIG. 15A-15C. TUNEL staining of OSCC xenografts. FIG. 15A: Representative photomicrograph of TUNEL stain of HSC3 xenograft (10×) treated with vehicle control. […] FIG. 15B: Number of apoptotic figures per field in vehicle and 40 μg capsazepine (CPZ) treated SCC4 xenografts. FIG. 15C: Number of apoptotic figures per field in vehicle and CPZ (20 m) treated SCC25 xenografts. Student's T-Test of the average of six fields with n=3; ***p<0.001.
At the conclusion of the experiment, serum was collected for liver and kidney function analysis. […] Tumors were analyzed histologically using H&E (hematoxylin and eosin) and TUNEL (terminal deoxyribonucleotidyl transferase-mediated dUTP nick end labeling) staining for detection of DNA fragmentation associated with apoptosis, and apoptotic figures were quantified. [FIGS. 15-1 to 15-3] […] Therefore, CPZ empirically has shown promise for being a well-tolerated treatment for OSCC.

Structure (SMILES): Oc1cc2c(cc1O)CN(C(=S)NCCc1ccc(Cl)cc1)CCC2 [CPZ, 2-[2-(4-chlorphenyl)ethylamino-thiocarbonyl]-7,8-dihydroxy-2,3,4,5-tetrahydro-1H-2-benzazepine]
- reduction in cell proliferation (SCC4): 40%
- healing of xenografts (HSC3 xenografts): complete healing in some treated HSC3 xenografts
- tumor volume (HSC3 xenografts; two weeks, p<0.05): significant reduction in tumor volume
- intra-cellular calcium levels [1]: had no effect on intra-cellular calcium levels
- apoptosis [2]: undergo apoptosis
- reduction in cell proliferation (SCC25): 80%
- reduction in cell proliferation [3]: 37%
- CFA-induced mechanical hyperalgesia [4]: Significantly reversed
- IC50 (HSC3 cells): 30 µM
- reduction in cell proliferation (Cal27): 15%
- reduction in cell proliferation [5]: 56%
- cytotoxicity [6]: significant dose dependent cytotoxicity
- reversal of CAP-induced apoptosis by CPZ [7]: failed to reverse these effects
- apoptotic figures in treated tumors (TUNEL) (OSCC xenografts): significant increase in apoptotic figures

From patent US9642859B2, “Use of capsazepine and analogs thereof to treat cancer” (THE BOARD OF REGENTS OF THE UNIVERSITY OF TEXAS SYSTEM, priority 2012, dated 2017)
